Laboratory results: ChEMBL document CHEMBL1201862, “PubChem BioAssay data set” (2004)
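Each compound was tested at five concentrations against cells in 96-well plates for 48 hours. At the GI50, growth is halved.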 The source made the active and inactive calls. No stated cut-off is given here; in the data, active = GI50 up to about 1.1 µM and inactive = higher.

Columns and labels:
Assay in all cases: growth of human tumour cells (NCI), 48 h
NCI-H226 = system: NCI-H226
UACC-62 = system: UACC-62
A549 = system: A549
SK-MEL-2 = system: SK-MEL-2
SF-268 = system: SF-268
LOX IMVI = system: LOX IMVI
KM12 = system: KM12
SNB-19 = system: SNB-19
NCI-H23 = system: NCI-H23
CAKI-1 = system: CAKI-1
HCC 2998 = system: HCC 2998
UO-31 = system: UO-31
SF-539 = system: SF-539
M14 = system: M14
TK-10 = system: TK-10
SW-620 = system: SW-620

Measured: GI50

Cc1ccc(NC(=O)CC2Sc3ccccc3NC2=O)cc1C (stereo unspecified)
inactive: NCI-H226 57.9 µM | UACC-62 75.3 µM | A549 41.2 µM | SK-MEL-2 > 100 µM | SF-268 60 µM | LOX IMVI 38.6 µM | KM12 90.4 µM | SNB-19 > 100 µM | NCI-H23 > 100 µM | CAKI-1 85.9 µM | HCC 2998 > 100 µM | UO-31 73.6 µM | SF-539 85.3 µM | M14 > 100 µM | TK-10 > 100 µM | SW-620 > 100 µM

Cc1ccc(S(=O)(=O)OC2CSSCC2OS(=O)(=O)c2ccc(C)cc2)cc1 (stereo unspecified)
inactive: NCI-H226 17.9 µM | UACC-62 7.89 µM | A549 18 µM | SK-MEL-2 15.7 µM | SF-268 14.7 µM | LOX IMVI 13.8 µM | KM12 14.1 µM | SNB-19 17.3 µM | NCI-H23 17.9 µM | CAKI-1 12.5 µM | HCC 2998 20.9 µM | UO-31 15.2 µM | SF-539 10.5 µM | M14 12.6 µM | TK-10 15.3 µM | SW-620 14.4 µM

Cc1ccc(S(=O)(=O)N/N=c2\c(C)c(C3=NS(=O)(=O)c4cc(S(N)(=O)=O)c(Cl)cc4N3)oc3c(Cl)cc(Cl)cc23)cc1
inactive: NCI-H226 > 100 µM | UACC-62 > 100 µM | A549 > 100 µM | SK-MEL-2 > 100 µM | SF-268 > 100 µM | LOX IMVI 86.5 µM | KM12 > 100 µM | SNB-19 > 100 µM | NCI-H23 > 100 µM | CAKI-1 > 100 µM | HCC 2998 > 100 µM | UO-31 > 100 µM | SF-539 > 100 µM | M14 > 100 µM | TK-10 > 100 µM | SW-620 6.87 µM

NC(=S)Nc1nnc(-c2ccc(-c3nnc(NC(N)=S)o3)cc2)o1
inactive: NCI-H226 > 100 µM | UACC-62 > 100 µM | A549 > 100 µM | SK-MEL-2 > 100 µM | SF-268 > 100 µM | LOX IMVI > 100 µM | KM12 > 100 µM | SNB-19 > 100 µM | NCI-H23 > 100 µM | CAKI-1 > 100 µM | HCC 2998 > 100 µM | UO-31 > 100 µM | SF-539 > 100 µM | M14 > 100 µM | TK-10 > 100 µM | SW-620 > 100 µM

C#CC1(O)CC(c2ccccc2)N(C)C(c2ccccc2)C1 (stereo unspecified)
inactive: NCI-H226 > 100 µM | UACC-62 > 100 µM | A549 > 100 µM | SK-MEL-2 > 100 µM | SF-268 > 100 µM | LOX IMVI 51.5 µM | KM12 > 100 µM | SNB-19 > 100 µM | NCI-H23 > 100 µM | CAKI-1 > 100 µM | HCC 2998 > 100 µM | UO-31 67.1 µM | SF-539 > 100 µM | M14 > 100 µM | TK-10 > 100 µM | SW-620 > 100 µM

CC(OC1CC(=O)CC2C(=O)C=CC(=O)C12)c1ccccc1 (stereo unspecified)
inactive: NCI-H226 20 µM | UACC-62 16.2 µM | A549 19.1 µM | SK-MEL-2 19.7 µM | SF-268 21.2 µM | LOX IMVI 17.2 µM | KM12 16.6 µM | SNB-19 28.4 µM | NCI-H23 18.1 µM | CAKI-1 16.9 µM | HCC 2998 16.1 µM | UO-31 16 µM | SF-539 19.8 µM | M14 18.7 µM | TK-10 17.8 µM | SW-620 13.8 µM
